From ChEMBL document CHEMBL5154839, “Discovery of a selective and covalent small-molecule inhibitor of BFL-1 protein that induces robust apoptosis in cancer cells” (Eur J Med Chem, 2022)
Active and inactive are the calls of the source. The calls are words filed in the database; no cut-off is given here.

Assays:
MV4-11 = assay: Growth inhibition of human MV4-11 cells incubated for 4 days by WST assay; assay type: functional, cell-based; settings: MV4-11, 96 h
MM1.S = assay: Upregulation of BFL-1protein expression in human MM1.S cells by Western blotting analysis; assay type: functional, cell-based
[1] = target: Induced myeloid leukemia cell differentiation protein Mcl-1 (Homo sapiens, UniProt Q07820); assay: Displacement of fluorescein tagged BID BH3 peptide from human MCL-1 (172 to 327 residues) expressed in Escherichia coli BL21 (DE3) assessed as inhibition constant incubated for 1.5 hrs by fluorescence polarization-based competitive binding assay
RPMI-8226 = assay: Growth inhibition of human RPMI-8226 cells incubated for 4 days by WST assay; assay type: functional, cell-based; settings: RPMI-8226, 96 h
U-937 [2] = assay: Induction of apoptosis in human U-937 cells assessed as caspase-3 cleavage measured after 24 hrs by Western blot analysis; assay type: functional, cell-based; settings: DDE = dose-dependent effect
Bcl-2-like protein 1 = Bcl-2-like protein 1 (Homo sapiens, UniProt Q07817); assay: Displacement of fluorescein tagged BAK peptide from N-terminal His tagged human BCL-xL (1 to 209 residues) expressed in Escherichia coli BL21 (DE3) assessed as inhibition constant incubated for 1.5 hrs by fluorescence polarization-based competitive binding assay
[3] = target: Transcriptional enhancer factor TEF-4 (Homo sapiens, UniProt Q15562); assay: Displacement of FAM- labeled YAP1 peptide from TEAD2 (217 to 447 residues) (unknown origin) expressed in Escherichia coli BL21 (DE3) assessed as inhibition constant incubated for 1.5 hrs by fluorescence polarization-based competitive binding assay
[4] = target: beta-catenin-B-cell lymphoma 9 protein complex (Homo sapiens, UniProt P35222); assay: Inhibition of N-terminal biotinylated human BCL9 (350 to 375 residues)/C-terminal 6-His-tagged beta-catenin (1 to 781 residues) (unknown origin) expressed in Escherichia coli BL21 (DE3) protein-protein interaction assessed as inhibition constant incubated for 1 hr by Alphascreen assay
[5] = target: T1, BCL2A11/BBC3 (Homo sapiens) (UniProt Q16548+Q9BXH1); assay: Inhibition of human BFL-1/PUMA protein-protein interaction in human Kasumi 1 cells assessed as increase in BFL-1 protein level at 20 to 80 uM measured after 5 hrs by co-immunoprecipitation assay; assay type: cell-based; settings: dose 20-80 µM
U-937 [6] = assay: Induction of apoptosis in human U-937 cells assessed as early apoptotic cells at 20 uM measured after 4 hrs by Annexin PI staining based flow cytometry method (reference value: 1.95 %); assay type: functional
[7] = target: E3 ubiquitin-protein ligase Mdm2 (Homo sapiens, UniProt Q00987); assay: Displacement of FAM- labeled PDI peptide from MDM2 (1 to 118 residues) (unknown origin) expressed in Escherichia coli BL21 (DE3) assessed as inhibition constant incubated for 1.5 hrs by fluorescence polarization-based competitive binding assay
[8] = target: T2, Bromodomain-containing protein 2 (Homo sapiens, UniProt P25440); assay: Binding affinity to recombinant human BRD2 BD2 (349-460 residues) assessed as inhibition constant by fluorescence polarization assay
[9] = target: T2, Bromodomain-containing protein 2; assay: Binding affinity to recombinant human BRD2 BD1 (72-205 residues) assessed as inhibition constant by fluorescence polarization assay
Kasumi 1 [10] = assay: Upregulation of BFL-1 protein expression in human Kasumi 1 cells by Western blotting analysis; assay type: functional, cell-based
Kasumi 1 [11] = assay: Growth inhibition of human Kasumi 1 cells incubated for 4 days by WST assay; assay type: functional, cell-based; settings: Kasumi 1, 96 h
[12] = target: Programmed cell death protein 1/Programmed cell death 1 ligand 1 (Homo sapiens, UniProt Q15116+Q9NZQ7); assay: Inhibition of biotinylated tagged PD-1 (unknown origin)/His tagged PD-L1 (unknown origin) protein-protein interaction assessed as inhibition constant incubated for 90 mins by AlphaLISA assay; assay type: protein-complex assay
U-937 [13] = assay: Induction of apoptosis in human U-937 cells assessed as early apoptotic cells at 40 uM measured after 4 hrs by Annexin PI staining based flow cytometry method (reference value: 1.95 %); assay type: functional
U-937 [14] = assay: Induction of apoptosis in human U-937 cells assessed as late apoptotic cells at 10 uM measured after 4 hrs by Annexin PI staining based flow cytometry method (reference value: 1.62 %); assay type: functional
U-937 [15] = assay: Induction of apoptosis in human U-937 cells assessed as phosphatidylserine level measured after 4 hrs by Annexin V staining based flow cytometry analysis; assay type: functional, cell-based; settings: DDE = dose-dependent effect
U-937 [16] = assay: Induction of apoptosis in human U-937 cells assessed as early apoptotic cells at 60 uM measured after 4 hrs by Annexin PI staining based flow cytometry method (reference value: 1.95 %); assay type: functional
U-937 [17] = assay: Induction of apoptosis in human U-937 cells assessed as late apoptotic cells at 40 uM measured after 4 hrs by Annexin PI staining based flow cytometry method (reference value: 1.62 %); assay type: functional
U-937 [18] = assay: Induction of apoptosis in human U-937 cells assessed as necrotic cells at 60 uM measured after 4 hrs by Annexin PI staining based flow cytometry method (reference value: 0.00 %); assay type: functional
U-937 [19] = assay: Induction of apoptosis in human U-937 cells assessed as increase in BFL-1 protein expression after 24 hrs by Western blot analysis; assay type: functional, cell-based; settings: DDE = dose-dependent effect
U-937 [20] = assay: Induction of apoptosis in human U-937 cells assessed as early apoptotic cells at 10 uM measured after 4 hrs by Annexin PI staining based flow cytometry method (reference value: 1.95 %); assay type: functional
Raji = assay: Growth inhibition of human Raji cells incubated for 4 days by WST assay; assay type: functional, cell-based; settings: 96 h
U-937 [21] = assay: Induction of apoptosis in human U-937 cells assessed as necrotic cells at 20 uM measured after 4 hrs by Annexin PI staining based flow cytometry method (reference value: 0.00 %); assay type: functional
[22] = Displacement of FAM- labeled PDI peptide from MDM4 C17S mutant (14 to 111 residues) (unknown origin) expressed in Escherichia coli BL21 (DE3) assessed as inhibition constant incubated for 1.5 hrs by fluorescence polarization-based competitive binding assay; parameters: species or system Homo sapiens
[23] = target: T1, BCL2A11/BBC3 (Homo sapiens); assay: Inhibition of human BFL-1/PUMA protein-protein interaction in human Kasumi 1 cells assessed as decrease in PUMA protein level at 80 uM measured after 5 hrs by co-immunoprecipitation assay; assay type: cell-based
K562 [24] = assay: Growth inhibition of human K562 cells incubated for 4 days by WST assay; assay type: functional, cell-based; settings: K562, 96 h
Bcl-2-related protein A1 = target: T3, Bcl-2-related protein A1 (Homo sapiens, UniProt Q16548); assay: Binding affinity to His-tagged recombinant BFL-1 (1 to 151 residues) (unknown origin) expressed in Escherichia coli BL21 (DE3) assessed as dissociation constant by surface plasmon resonance analysis
T3 sequence (Q16548 whole entry): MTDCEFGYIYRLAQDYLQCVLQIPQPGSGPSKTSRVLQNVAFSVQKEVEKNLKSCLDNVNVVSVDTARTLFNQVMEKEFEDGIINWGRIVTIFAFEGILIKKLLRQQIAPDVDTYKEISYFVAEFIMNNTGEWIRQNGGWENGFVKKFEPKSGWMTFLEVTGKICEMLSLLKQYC

K562 [25] = assay: Upregulation of BFL-1protein expression in human K562 cells by Western blotting analysis; assay type: functional, cell-based

T2 sequence (P25440 whole entry, the tested form may be a part): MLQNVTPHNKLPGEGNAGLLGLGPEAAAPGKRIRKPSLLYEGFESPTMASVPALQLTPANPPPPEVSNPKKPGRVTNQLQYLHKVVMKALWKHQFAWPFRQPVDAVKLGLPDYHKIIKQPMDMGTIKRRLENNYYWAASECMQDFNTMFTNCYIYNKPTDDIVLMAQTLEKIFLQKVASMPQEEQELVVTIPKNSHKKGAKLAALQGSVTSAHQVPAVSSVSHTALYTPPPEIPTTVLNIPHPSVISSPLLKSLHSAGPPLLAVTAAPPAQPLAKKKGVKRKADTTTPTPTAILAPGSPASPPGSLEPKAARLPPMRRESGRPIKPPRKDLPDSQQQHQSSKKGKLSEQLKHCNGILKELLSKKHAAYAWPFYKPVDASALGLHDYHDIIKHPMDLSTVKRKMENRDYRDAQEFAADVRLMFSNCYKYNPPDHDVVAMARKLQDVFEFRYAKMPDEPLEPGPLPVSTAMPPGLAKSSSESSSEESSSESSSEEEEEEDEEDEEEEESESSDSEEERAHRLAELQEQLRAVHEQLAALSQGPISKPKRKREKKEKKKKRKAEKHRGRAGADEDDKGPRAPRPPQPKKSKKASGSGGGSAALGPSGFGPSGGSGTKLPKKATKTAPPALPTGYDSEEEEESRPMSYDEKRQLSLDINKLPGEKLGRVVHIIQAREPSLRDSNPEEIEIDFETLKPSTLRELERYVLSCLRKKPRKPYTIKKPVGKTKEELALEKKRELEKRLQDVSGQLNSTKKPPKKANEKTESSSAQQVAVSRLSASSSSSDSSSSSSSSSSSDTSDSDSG
T1 sequence (Q9BXH1 whole entry, looked up, one chain of several): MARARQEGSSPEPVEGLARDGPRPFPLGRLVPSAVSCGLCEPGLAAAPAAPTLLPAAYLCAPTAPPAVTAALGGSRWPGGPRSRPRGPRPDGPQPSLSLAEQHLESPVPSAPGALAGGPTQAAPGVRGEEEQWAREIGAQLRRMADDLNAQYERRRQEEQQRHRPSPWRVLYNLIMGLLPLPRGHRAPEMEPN
Chain of Induced myeloid leukemia cell differentiation protein Mcl-1 (Q07820 whole entry, the tested form may be a part): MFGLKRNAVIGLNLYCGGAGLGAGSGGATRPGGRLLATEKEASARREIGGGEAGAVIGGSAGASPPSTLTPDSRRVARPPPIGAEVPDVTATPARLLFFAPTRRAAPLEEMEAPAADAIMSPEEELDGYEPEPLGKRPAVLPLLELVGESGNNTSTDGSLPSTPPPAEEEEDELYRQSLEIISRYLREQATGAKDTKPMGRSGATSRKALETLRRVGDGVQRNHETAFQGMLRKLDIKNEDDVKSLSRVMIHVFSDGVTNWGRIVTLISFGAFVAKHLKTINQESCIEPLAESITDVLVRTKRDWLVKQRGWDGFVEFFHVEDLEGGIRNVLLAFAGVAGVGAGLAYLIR
Chain of Programmed cell death protein 1/Programmed cell death 1 ligand 1 (Q15116 whole entry): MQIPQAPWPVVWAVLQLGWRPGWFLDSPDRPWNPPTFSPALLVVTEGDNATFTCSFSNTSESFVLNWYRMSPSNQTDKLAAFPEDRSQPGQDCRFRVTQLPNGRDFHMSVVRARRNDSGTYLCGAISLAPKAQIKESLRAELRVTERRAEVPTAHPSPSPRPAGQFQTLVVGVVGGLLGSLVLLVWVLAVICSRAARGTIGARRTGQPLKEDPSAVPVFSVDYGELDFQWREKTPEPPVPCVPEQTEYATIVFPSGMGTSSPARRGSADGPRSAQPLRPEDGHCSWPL
Chain of Programmed cell death protein 1/Programmed cell death 1 ligand 1 (Q9NZQ7 whole entry): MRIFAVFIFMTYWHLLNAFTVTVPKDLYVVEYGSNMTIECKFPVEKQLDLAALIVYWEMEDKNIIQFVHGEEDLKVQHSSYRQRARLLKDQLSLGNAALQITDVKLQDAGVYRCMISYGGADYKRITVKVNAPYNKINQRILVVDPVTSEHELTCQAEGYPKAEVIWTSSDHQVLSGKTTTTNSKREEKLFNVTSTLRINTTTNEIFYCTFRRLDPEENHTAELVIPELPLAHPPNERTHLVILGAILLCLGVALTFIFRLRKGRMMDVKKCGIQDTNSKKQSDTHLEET
Chain of beta-catenin-B-cell lymphoma 9 protein complex (P35222 whole entry, the tested form may be a part): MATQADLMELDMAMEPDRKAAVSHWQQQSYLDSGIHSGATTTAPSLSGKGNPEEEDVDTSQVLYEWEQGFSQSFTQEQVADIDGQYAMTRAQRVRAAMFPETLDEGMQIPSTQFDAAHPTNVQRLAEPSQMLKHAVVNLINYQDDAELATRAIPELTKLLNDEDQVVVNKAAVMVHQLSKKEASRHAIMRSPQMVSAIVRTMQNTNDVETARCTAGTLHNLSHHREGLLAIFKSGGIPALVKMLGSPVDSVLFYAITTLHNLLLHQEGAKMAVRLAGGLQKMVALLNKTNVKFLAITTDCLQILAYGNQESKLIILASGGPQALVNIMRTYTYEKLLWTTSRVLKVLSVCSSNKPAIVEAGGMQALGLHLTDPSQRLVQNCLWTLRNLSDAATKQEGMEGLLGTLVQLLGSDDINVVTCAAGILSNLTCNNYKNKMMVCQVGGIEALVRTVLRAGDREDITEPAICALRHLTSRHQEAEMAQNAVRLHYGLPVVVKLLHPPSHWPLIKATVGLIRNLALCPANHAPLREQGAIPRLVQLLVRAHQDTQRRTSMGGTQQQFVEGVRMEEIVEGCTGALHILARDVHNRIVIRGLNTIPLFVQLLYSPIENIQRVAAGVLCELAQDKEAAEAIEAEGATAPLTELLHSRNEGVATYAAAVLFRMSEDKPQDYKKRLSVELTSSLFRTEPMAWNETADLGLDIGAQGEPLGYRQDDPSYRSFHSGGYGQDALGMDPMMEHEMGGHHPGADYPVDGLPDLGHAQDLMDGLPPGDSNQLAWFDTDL
Chain of beta-catenin-B-cell lymphoma 9 protein complex (O00512 whole entry, further chain, the tested form may be a part): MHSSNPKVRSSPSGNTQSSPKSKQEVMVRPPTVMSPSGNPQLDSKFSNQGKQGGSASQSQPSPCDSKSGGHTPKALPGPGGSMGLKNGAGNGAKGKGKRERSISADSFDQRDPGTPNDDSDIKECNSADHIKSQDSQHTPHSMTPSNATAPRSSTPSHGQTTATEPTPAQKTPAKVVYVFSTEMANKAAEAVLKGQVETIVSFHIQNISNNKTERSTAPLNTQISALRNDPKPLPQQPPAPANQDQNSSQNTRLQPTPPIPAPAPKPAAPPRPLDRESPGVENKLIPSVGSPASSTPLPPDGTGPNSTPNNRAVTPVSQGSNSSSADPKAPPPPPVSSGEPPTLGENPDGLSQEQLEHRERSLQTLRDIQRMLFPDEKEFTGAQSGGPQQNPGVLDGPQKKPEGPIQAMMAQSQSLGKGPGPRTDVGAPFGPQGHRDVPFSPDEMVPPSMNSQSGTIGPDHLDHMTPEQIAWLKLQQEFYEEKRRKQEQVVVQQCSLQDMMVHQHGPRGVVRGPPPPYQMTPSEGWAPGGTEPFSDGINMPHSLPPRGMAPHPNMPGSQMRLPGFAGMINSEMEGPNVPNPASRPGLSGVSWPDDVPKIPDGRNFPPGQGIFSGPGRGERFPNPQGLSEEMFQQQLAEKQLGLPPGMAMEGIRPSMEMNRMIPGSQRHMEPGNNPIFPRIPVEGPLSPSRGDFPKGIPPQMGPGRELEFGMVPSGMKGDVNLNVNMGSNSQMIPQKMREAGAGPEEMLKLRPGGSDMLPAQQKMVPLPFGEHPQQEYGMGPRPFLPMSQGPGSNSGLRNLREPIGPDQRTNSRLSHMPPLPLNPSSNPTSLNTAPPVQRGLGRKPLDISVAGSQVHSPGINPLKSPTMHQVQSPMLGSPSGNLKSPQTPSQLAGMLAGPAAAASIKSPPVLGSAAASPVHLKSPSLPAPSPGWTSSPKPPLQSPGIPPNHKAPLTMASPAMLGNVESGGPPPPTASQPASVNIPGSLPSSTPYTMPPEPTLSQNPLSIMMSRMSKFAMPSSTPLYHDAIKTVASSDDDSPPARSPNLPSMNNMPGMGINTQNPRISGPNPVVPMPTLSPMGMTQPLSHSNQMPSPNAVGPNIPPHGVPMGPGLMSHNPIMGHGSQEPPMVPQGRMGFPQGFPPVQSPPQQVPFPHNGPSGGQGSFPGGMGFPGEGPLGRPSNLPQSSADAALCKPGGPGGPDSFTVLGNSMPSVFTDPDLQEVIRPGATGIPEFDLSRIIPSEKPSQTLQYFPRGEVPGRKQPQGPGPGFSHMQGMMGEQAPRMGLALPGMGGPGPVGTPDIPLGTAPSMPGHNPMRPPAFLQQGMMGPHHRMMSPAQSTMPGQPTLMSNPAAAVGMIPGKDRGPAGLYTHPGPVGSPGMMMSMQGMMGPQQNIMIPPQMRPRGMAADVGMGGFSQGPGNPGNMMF
Chain of Transcriptional enhancer factor TEF-4 (Q15562 whole entry, the tested form may be a part): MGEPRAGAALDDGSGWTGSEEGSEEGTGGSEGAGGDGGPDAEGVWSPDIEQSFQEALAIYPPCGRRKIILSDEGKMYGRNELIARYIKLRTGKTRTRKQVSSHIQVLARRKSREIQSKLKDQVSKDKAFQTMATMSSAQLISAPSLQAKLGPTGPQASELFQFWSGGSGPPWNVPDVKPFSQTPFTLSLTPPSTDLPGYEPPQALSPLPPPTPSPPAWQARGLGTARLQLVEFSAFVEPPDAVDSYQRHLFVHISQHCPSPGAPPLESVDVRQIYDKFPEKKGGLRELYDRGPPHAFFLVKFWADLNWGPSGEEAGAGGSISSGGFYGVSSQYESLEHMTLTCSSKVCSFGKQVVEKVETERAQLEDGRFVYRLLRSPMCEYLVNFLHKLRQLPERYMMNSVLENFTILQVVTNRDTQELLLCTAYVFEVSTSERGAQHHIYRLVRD
Chain of Bcl-2-like protein 1 (Q07817 whole entry, the tested form may be a part): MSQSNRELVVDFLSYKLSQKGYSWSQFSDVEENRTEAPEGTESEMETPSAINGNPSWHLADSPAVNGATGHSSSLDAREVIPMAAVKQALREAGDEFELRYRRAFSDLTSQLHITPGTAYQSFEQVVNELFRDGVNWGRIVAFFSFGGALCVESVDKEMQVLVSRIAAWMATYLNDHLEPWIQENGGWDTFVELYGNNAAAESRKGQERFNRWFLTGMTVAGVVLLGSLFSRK

## C=CC(=O)N1CCN(c2c3ccc(-c4cccc(F)c4)cc3nn2Cc2ccccc2)CC1
MV4-11
  IC50: 3.9 µM
MM1.S
  Activity: Active
[1]
  Ki: 111 µM
RPMI-8226
  IC50: 8.7 µM
U-937 [2]
  Activity: Dde
Bcl-2-like protein 1
  Ki: > 400 µM
[3]
  Ki: > 400 µM
[4]
  Ki: > 400 µM
[5]
  Activity: Active
U-937 [6]
  Activity: 8.02%
[7]
  Ki: > 400 µM
[8]
  Ki: > 400 µM
[9]
  Ki: > 400 µM
Kasumi 1 [10]
  Activity: Active
Kasumi 1 [11]
  IC50: 5.5 µM
[12]
  Ki: > 400 µM
U-937 [13]
  Activity: 5.52%
U-937 [14]
  Activity: 2.19%
U-937 [15]
  Activity: Dde
U-937 [16]
  Activity: 4.61%
U-937 [17]
  Activity: 20.83%
U-937 [18]
  Activity: 11.37%
U-937 [19]
  Activity: Dde
U-937 [20]
  Activity: 6.03%
Raji
  IC50: 26.9 µM
U-937 [21]
  Activity: 1.02%
[22]
  Ki: > 400 µM
[23]
  inhibition: Active
K562 [24]
  IC50: 7.7 µM
Bcl-2-related protein A1
  Kd: 262 nM
K562 [25]
  Activity: Active
